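Following 48 hours of exposure in 96-well plates, responses at five concentrations were used to interpolate endpoints linearly. TGI: concentration producing complete growth inhibition.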
Legend:
Assay in all cases: NCI-60 cell line screen, 48 h
M19-MEL melanoma = test system: M19-MEL melanoma
SK-MEL-5 melanoma = test system: SK-MEL-5 melanoma
HL-60(TB) leukemia = test system: HL-60(TB) leukemia
SNB-78 CNS = test system: SNB-78 CNS
HOP-62 NSCLC = test system: HOP-62 NSCLC
HOP-92 NSCLC = test system: HOP-92 NSCLC
NCI-H522 lung = test system: NCI-H522 lung
NCI-H460 lung = test system: NCI-H460 lung
OVCAR-4 ovarian = test system: OVCAR-4 ovarian
DMS 273 small cell lung = test system: DMS 273 small cell lung
NCI-H23 lung = test system: NCI-H23 lung
SNB-19 CNS = test system: SNB-19 CNS
SW-620 colon = test system: SW-620 colon
KM20L2 colon = test system: KM20L2 colon
786-0 renal = test system: 786-0 renal
UO-31 renal = test system: UO-31 renal
U251 CNS = test system: U251 CNS
SNB-75 CNS = test system: SNB-75 CNS
TK-10 renal = test system: TK-10 renal
HOP-18 NSCLC = test system: HOP-18 NSCLC
LXFL 529 NSCLC = test system: LXFL 529 NSCLC
OVCAR-3 ovarian = test system: OVCAR-3 ovarian
RPMI-8226 leukemia = test system: RPMI-8226 leukemia
MOLT-4 leukemia = test system: MOLT-4 leukemia
HT29 colon = test system: HT29 colon
MALME-3M melanoma = test system: MALME-3M melanoma
OVCAR-5 ovarian = test system: OVCAR-5 ovarian
COLO 205 colon = test system: COLO 205 colon
HCT-116 colon = test system: HCT-116 colon
OVCAR-8 ovarian = test system: OVCAR-8 ovarian
ACHN renal = test system: ACHN renal
SF-539 CNS = test system: SF-539 CNS
K-562 leukemia = test system: K-562 leukemia
SN12C renal = test system: SN12C renal
EKVX NSCLC = test system: EKVX NSCLC
KM12 colon = test system: KM12 colon
UACC-62 melanoma = test system: UACC-62 melanoma
SF-268 CNS = test system: SF-268 CNS
NCI-H226 lung = test system: NCI-H226 lung
DLD-1 colon = test system: DLD-1 colon
SK-MEL-28 melanoma = test system: SK-MEL-28 melanoma
UACC-257 melanoma = test system: UACC-257 melanoma
A498 renal = test system: A498 renal
SF-295 CNS = test system: SF-295 CNS
SK-OV-3 ovarian = test system: SK-OV-3 ovarian
M14 melanoma = test system: M14 melanoma
CAKI-1 renal = test system: CAKI-1 renal
HCC-2998 colon = test system: HCC-2998 colon
HCT-15 colon = test system: HCT-15 colon
CCRF-CEM leukemia = test system: CCRF-CEM leukemia
IGROV1 ovarian = test system: IGROV1 ovarian
RXF 393 renal = test system: RXF 393 renal
LOX IMVI melanoma = test system: LOX IMVI melanoma
A549 NSCLC = test system: A549 NSCLC
XF 498 CNS = test system: XF 498 CNS
SR leukemia = test system: SR leukemia

Q: Which results are given for CCc1cccc(C)c1NC(=O)CCc1n[nH]c(=S)o1?
A: TGI (M19-MEL melanoma): > 100 µM; TGI (SK-MEL-5 melanoma): > 100 µM; TGI (HL-60(TB) leukemia): > 100 µM; TGI (SNB-78 CNS): > 100 µM; TGI (HOP-62 NSCLC): > 100 µM; TGI (HOP-92 NSCLC): > 100 µM; TGI (NCI-H522 lung): > 100 µM; TGI (NCI-H460 lung): > 100 µM; TGI (OVCAR-4 ovarian): > 100 µM; TGI (DMS 273 small cell lung): > 100 µM; TGI (NCI-H23 lung): > 100 µM; TGI (SNB-19 CNS): > 100 µM; TGI (SW-620 colon): 28 µM; TGI (KM20L2 colon): > 100 µM; TGI (786-0 renal): > 100 µM; TGI (UO-31 renal): > 100 µM; TGI (U251 CNS): > 100 µM; TGI (SNB-75 CNS): > 100 µM; TGI (TK-10 renal): > 100 µM; TGI (HOP-18 NSCLC): > 100 µM; TGI (LXFL 529 NSCLC): > 100 µM; TGI (OVCAR-3 ovarian): > 100 µM; TGI (RPMI-8226 leukemia): 58.2 µM; TGI (MOLT-4 leukemia): > 100 µM; TGI (HT29 colon): > 100 µM; TGI (MALME-3M melanoma): > 100 µM; TGI (OVCAR-5 ovarian): > 100 µM; TGI (COLO 205 colon): > 100 µM; TGI (HCT-116 colon): 31.1 µM; TGI (OVCAR-8 ovarian): > 100 µM; TGI (ACHN renal): > 100 µM; TGI (SF-539 CNS): > 100 µM; TGI (K-562 leukemia): > 100 µM; TGI (SN12C renal): > 100 µM; TGI (EKVX NSCLC): > 100 µM; TGI (KM12 colon): > 100 µM; TGI (UACC-62 melanoma): > 100 µM; TGI (SF-268 CNS): > 100 µM; TGI (NCI-H226 lung): > 100 µM; TGI (DLD-1 colon): > 100 µM; TGI (SK-MEL-28 melanoma): > 100 µM; TGI (UACC-257 melanoma): > 100 µM; TGI (A498 renal): > 100 µM; TGI (SF-295 CNS): > 100 µM; TGI (SK-OV-3 ovarian): > 100 µM; TGI (M14 melanoma): > 100 µM; TGI (CAKI-1 renal): > 100 µM; TGI (HCC-2998 colon): > 100 µM; TGI (HCT-15 colon): > 100 µM; TGI (CCRF-CEM leukemia): > 100 µM; TGI (IGROV1 ovarian): > 100 µM

Q: With COc1nc2c(nc(N)n2C2OC(CO)C(O)C(O)C2O)c(=O)[nH]1 (configuration not stated) as the compound, how does the TGI (M19-MEL melanoma) read?
A: The TGI was > 100 µM.

Q: What about the TGI (SK-MEL-5 melanoma) of the same compound?
A: The TGI was > 100 µM.

Q: What about the TGI (HL-60(TB) leukemia) of the same compound?
A: The TGI was > 100 µM.

Q: What about the TGI (SNB-78 CNS) of the same compound?
A: The TGI was > 100 µM.

Q: What about the TGI (HOP-62 NSCLC) of the same compound?
A: Its TGI is > 100 µM.

Q: What about the TGI (HOP-92 NSCLC) of the same compound?
A: The TGI was > 100 µM.

Q: And the TGI (NCI-H522 lung)?
A: Its TGI is > 100 µM.

Q: What about the TGI (NCI-H460 lung) of the same compound?
A: Its TGI is > 100 µM.

Q: And the TGI (OVCAR-4 ovarian)?
A: Its TGI is > 100 µM.

Q: And the TGI (NCI-H23 lung)?
A: The TGI was > 100 µM.

Q: What about the TGI (RXF 393 renal) of the same compound?
A: Its TGI is > 100 µM.

Q: And the TGI (SNB-19 CNS)?
A: The TGI was > 100 µM.

Q: What about the TGI (SW-620 colon) of the same compound?
A: The TGI was > 100 µM.

Q: What about the TGI (KM20L2 colon) of the same compound?
A: Its TGI is > 100 µM.

Q: What about the TGI (786-0 renal) of the same compound?
A: The TGI was > 100 µM.

Q: What about the TGI (UO-31 renal) of the same compound?
A: Its TGI is > 100 µM.

Q: And the TGI (U251 CNS)?
A: The TGI was > 100 µM.

Q: And the TGI (SNB-75 CNS)?
A: Its TGI is > 100 µM.

Q: And the TGI (TK-10 renal)?
A: Its TGI is > 100 µM.

Q: And the TGI (HOP-18 NSCLC)?
A: The TGI was > 100 µM.

Q: What about the TGI (LXFL 529 NSCLC) of the same compound?
A: Its TGI is > 100 µM.

Q: What about the TGI (LOX IMVI melanoma) of the same compound?
A: The TGI was > 100 µM.

Q: What about the TGI (OVCAR-3 ovarian) of the same compound?
A: The TGI was > 100 µM.

Q: What about the TGI (HT29 colon) of the same compound?
A: The TGI was > 100 µM.

Q: What about the TGI (MALME-3M melanoma) of the same compound?
A: The TGI was > 100 µM.

Q: And the TGI (COLO 205 colon)?
A: The TGI was > 100 µM.

Q: And the TGI (A549 NSCLC)?
A: The TGI was > 100 µM.

Q: What about the TGI (HCT-116 colon) of the same compound?
A: Its TGI is > 100 µM.

Q: What about the TGI (OVCAR-8 ovarian) of the same compound?
A: Its TGI is > 100 µM.

Q: And the TGI (ACHN renal)?
A: The TGI was > 100 µM.

Q: And the TGI (SF-539 CNS)?
A: The TGI was > 100 µM.

Q: And the TGI (XF 498 CNS)?
A: The TGI was > 100 µM.

Q: What about the TGI (K-562 leukemia) of the same compound?
A: The TGI was > 100 µM.

Q: And the TGI (SN12C renal)?
A: Its TGI is > 100 µM.

Q: And the TGI (EKVX NSCLC)?
A: Its TGI is > 100 µM.

Q: And the TGI (KM12 colon)?
A: Its TGI is > 100 µM.

Q: What about the TGI (UACC-62 melanoma) of the same compound?
A: The TGI was > 100 µM.

Q: What about the TGI (SF-268 CNS) of the same compound?
A: The TGI was > 100 µM.

Q: What about the TGI (NCI-H226 lung) of the same compound?
A: The TGI was > 100 µM.

Q: And the TGI (DLD-1 colon)?
A: Its TGI is > 100 µM.

Q: What about the TGI (SK-MEL-28 melanoma) of the same compound?
A: The TGI was > 100 µM.

Q: What about the TGI (UACC-257 melanoma) of the same compound?
A: Its TGI is > 100 µM.

Q: What about the TGI (A498 renal) of the same compound?
A: Its TGI is > 100 µM.

Q: And the TGI (SR leukemia)?
A: The TGI was > 100 µM.

Q: And the TGI (SF-295 CNS)?
A: Its TGI is > 100 µM.

Q: What about the TGI (SK-OV-3 ovarian) of the same compound?
A: Its TGI is > 100 µM.

Q: What about the TGI (M14 melanoma) of the same compound?
A: Its TGI is > 100 µM.

Q: And the TGI (CAKI-1 renal)?
A: The TGI was > 100 µM.

Q: What about the TGI (HCC-2998 colon) of the same compound?
A: Its TGI is > 100 µM.

Q: What about the TGI (CCRF-CEM leukemia) of the same compound?
A: Its TGI is > 100 µM.

Q: And the TGI (IGROV1 ovarian)?
A: Its TGI is > 100 µM.

From PubChem BioAssay (NCI)
